Reference: US8927506B2, “Acetates of 2-deoxy monosaccharides with anticancer activity” (Board of Regents, The University of Texas System, priority 2008, dated 2015)

Tests used:
[1] = Preliminary biodistribution / pharmacokinetic study by oral gavage, 2-DG content in plasma and brain by LC/MS/MS; assay type: in vivo; conditions: CD-1 mice
Description: Analytical methodologies (LC/MS/MS) were developed that are capable of quantifying these acetate sugars and the resulting liberation of 2-DG in various biomatrices (plasma and brain tissue). Using this analytical method preliminary biodistribution studies were undertaken in CD-1 mice to examine the pharmacokinetics of these novel agents.
Briefly, four animals per treatment group were given equivalent doses of either 2-DG, the compound of Example 6 (6-O-acetate of 2-DG) or the compound of Example 4 (4,6-di-O-acetate of 2-DG) by oral gavage using the same vehicle. Individual groups of animals were then sacrificed at 0.25, 0.5, 1, 2 and 4 hours following dose administration. From each animal plasma and brain tissues were harvested and then analyzed for 2-DG content by LC/mass spectrometry.

[2] = tested on: pancreatic Colo357-FG cell line; test: In vitro activity in pancreatic Colo357-FG cell line; assay type: cell-based; conditions: COLO 357/FG; Colo357FG pancreatic cell line; concentration reducing cell viability to half
Description: As used herein, reference to “IC50” is intended to refer to the concentration of a compound or composition that reduces the viability of cells to half the original level. In broader terms, IC50 can refer to half the maximal inhibitory concentration of a substance for inhibiting various biological processes.
In vitro activity in pancreatic Colo357-FG cell line is provided below in Table 1.

| Structure (SMILES) | duration of active concentrations of 2-DG at the site of action (brain) relative to 2-DG alone ([1]; brain) | IC50 [2] | highest attained brain tissue concentration of 2-DG ([1]; at 2 hrs after administration) |
| --- | --- | --- | --- |
| CC(=O)OCC1OC(O)CC(O)C1O [Example 6, 6-O-acetyl-2-deoxy-D-glucose] | more than twice as long |  |  |
| CC(=O)OCC1OC(O)CC(O)C1OC(C)=O [Example 4, 4,6-Di-O-acetyl-2-deoxy-D-glucose] |  | 1.7 mM |  |
| CC(=O)OCC1OC(OC(C)=O)CC(O)C1O (stereo not shown) [Example 3] |  | 17.2 mM |  |
| CC(=O)OC1CC(O)C(O)C(CO)O1 [Example 1, 1-O-Acetyl-2-deoxy-D-glucose] |  | 11.9 mM |  |
| OCC1OC(O)CC(O)C1O (stereo not shown) [Example 2-DG, 2-deoxy-glucose, reference compound] |  | 9.7 mM | 12 μg/gm |
| CC(=O)OCC1OC(O)CC(OC(C)=O)C1O (stereo not shown) [Example 5] |  | 1.6 mM |  |
